Data taken from ChEMBL document CHEMBL5380816, “Inclusion of Nitrofurantoin into the Realm of Cancer Chemotherapy via Biology-Oriented Synthesis and Drug Repurposing” (J Med Chem, 2023).
Calls of active or inactive are those of the source. No cut-off for these calls is given here.

Tests used:
HeLa [1] = experiment: Induction of apoptosis in human HeLa cells assessed as viable cells incubated at 0.11 uM for 72 hrs by annexin V-FITC based propidium iodide dual staining assay (reference value: 97.23%); type: functional; settings: read-out: Activity
Caco-2 [2] = experiment: Anticancer activity against human Caco-2 cells assessed as round cells incubated at 0.11 uM for 72 hrs by phase contrast inverted microscopic analysis; type: functional, cell-based
HeLa [3] = experiment: Anticancer activity against human HeLa cells assessed as cell shrinkage incubated at 0.11 uM for 72 hrs by phase contrast inverted microscopic analysis; type: functional, cell-based
HepG2 [4] = experiment: Induction of apoptosis in human HepG2 cells assessed as late apoptotic cells by measuring orange to red patch incubated at 0.11 uM for 72 hrs by acridine orange-ethidium bromide dual staining based fluorescence microscopic analysis; type: functional, cell-based
HeLa [5] = experiment: Induction of apoptosis in human HeLa cells assessed as early apoptotic cells incubated at 0.11 uM for 72 hrs by annexin V-FITC based propidium iodide dual staining assay (reference value: 2.77%); type: functional
Caco-2 [6] = experiment: Induction of apoptosis in human Caco-2 cells assessed as early apoptotic cells by measuring bright green patch incubated at 0.11 uM for 72 hrs by acridine orange-ethidium bromide dual staining based fluorescence microscopic analysis; type: functional, cell-based
HeLa [7] = experiment: Anticancer activity against human HeLa cells assessed as absence of normal spindle shape incubated at 0.11 uM for 72 hrs by phase contrast inverted microscopic analysis; type: functional, cell-based
dsDNA = experiment: Induction of damage in dsDNA (unknown origin) assessed as instantaneous DNA disruption by measuring decrease in fluorescence intensity at 100 uM incubated upto 160 mins by EvaGreen based fluorescence plate reader analysis; type: nucleic-acid assay
HepG2 [8] = experiment: Induction of apoptosis in human HepG2 cells assessed as viable cells incubated at 0.11 uM for 72 hrs by annexin V-FITC based propidium iodide dual staining assay (reference value: 97.27%); type: functional; settings: read-out: Activity
HepG2 [9] = experiment: Anticancer activity against human HepG2 cells assessed as round cells incubated at 0.11 uM for 72 hrs by phase contrast inverted microscopic analysis; type: functional, cell-based
MDA-MB-231 = experiment: Anticancer activity against human MDA-MB-231 cells incubated for 24 hrs by MTT assay; type: functional, cell-based; settings: MDA-MB-231, 24 h
MCF7 [10] = experiment: Induction of oxidative stress in human MCF7 cells assessed as cell death by measuring redox alteration fluorescence incubated at 0.098 uM for 72 hrs in presence of dihydro dichlorofluorescein diacetate by DCFH-DA based flow cytometric analysis relative to control; type: functional
HeLa [11] = experiment: Induction of apoptosis in human HeLa cells assessed as early apoptotic cells incubated at 0.017 uM for 72 hrs by annexin V-FITC based propidium iodide dual staining assay (reference value: 2.77%); type: functional
HepG2 [12] = experiment: Induction of oxidative stress in human HepG2 cells assessed as cell death by measuring redox alteration fluorescence incubated at 0.017 uM for 72 hrs in presence of dihydro dichlorofluorescein diacetate by DCFH-DA based flow cytometric analysis relative to control; type: functional
MCF7 [13] = experiment: Induction of apoptosis in human MCF7 cells assessed as viable cells by measuring green uniform patch incubated at 0.017 uM for 72 hrs by acridine orange-ethidium bromide dual staining based fluorescence microscopic analysis; type: functional, cell-based
Caco-2 [14] = experiment: Induction of apoptosis in human Caco-2 cells assessed as total apoptotic cells incubated at 0.017 uM for 72 hrs by annexin V-FITC based propidium iodide dual staining assay (reference value: 0.04 +/- 0.005%); type: functional
Caco-2 [15] = experiment: Induction of apoptosis in human Caco-2 cells assessed as late apoptotic cells incubated at 0.017 uM for 72 hrs by annexin V-FITC based propidium iodide dual staining assay (reference value: 0.02%); type: functional
HepG2 [16] = experiment: Induction of apoptosis in human HepG2 cells assessed as total apoptotic cells incubated at 0.098 uM for 72 hrs by annexin V-FITC based propidium iodide dual staining assay (reference value: 0.99 +/- 0.02%); type: functional
Caco-2 [17] = experiment: Anticancer activity against human Caco-2 cells assessed as smaller cells incubated at 0.098uM for 72 hrs by phase contrast inverted microscopic analysis; type: functional, cell-based
MCF7 [18] = experiment: Induction of apoptosis in human MCF7 cells assessed as late apoptotic cells by measuring orange to red patch incubated at 0.098 uM for 72 hrs by acridine orange-ethidium bromide dual staining based fluorescence microscopic analysis; type: functional, cell-based
HepG2 [19] = experiment: Induction of apoptosis in human HepG2 cells assessed as viable cells incubated at 0.098 uM for 72 hrs by annexin V-FITC based propidium iodide dual staining assay (reference value: 97.27%); type: functional; settings: read-out: Activity
HepG2 [20] = experiment: Induction of apoptosis in human HepG2 cells assessed as early apoptotic cells incubated at 0.098 uM for 72 hrs by annexin V-FITC based propidium iodide dual staining assay (reference value: 1.74%); type: functional
MCF7 [21] = experiment: Induction of oxidative stress in human MCF7 cells assessed as cell death by measuring redox alteration fluorescence incubated at 0.017 uM for 72 hrs in presence of dihydro dichlorofluorescein diacetate by DCFH-DA based flow cytometric analysis relative to control; type: functional
Caco-2 [22] = experiment: Induction of apoptosis in human Caco-2 cells assessed as caspase3/7 activation at 0.097 uM using caspase-glo 3/7 as substrate relative to control; type: functional
Caco-2 [23] = experiment: Induction of apoptosis in human Caco-2 cells assessed as early apoptotic cells incubated at 0.097 uM for 72 hrs by annexin V-FITC based propidium iodide dual staining assay (reference value: 0.07%); type: functional
HeLa [24] = experiment: Induction of apoptosis in human HeLa cells assessed as total apoptotic cells incubated at 0.097 uM for 72 hrs by annexin V-FITC based propidium iodide dual staining assay (reference value: 0 +/- 0.035%); type: functional
MCF7 [25] = experiment: Induction of apoptosis in human MCF7 cells assessed as viable cells incubated at 0.097 uM for 72 hrs by annexin V-FITC based propidium iodide dual staining assay (reference value: 99.9%); type: functional; settings: read-out: Activity

C#CCN1C(=O)CN(/N=C/c2ccc([N+](=O)[O-])o2)C1=O
viability at 0.11 µM (HeLa [1]): 66.4% | Activity (Caco-2 [2]): Active | Activity (HeLa [3]): Active | Activity (HepG2 [4]): Active | Activity (HeLa [5]): 9.44% | Activity (Caco-2 [6]): Active | Activity (HeLa [7]): Active | Activity (dsDNA): Active | viability at 0.11 µM (HepG2 [8]): 32.1% | Activity (HepG2 [9]): Active | IC50 (MDA-MB-231): 242 µM

O=c1[nH]cc(F)c(=O)[nH]1 [FLUOROURACIL]
Activity (MCF7 [10]): 4.24% | Activity (HeLa [11]): 7.6% | Activity (HepG2 [12]): 4.78% | Activity (MCF7 [13]): Active | Activity (Caco-2 [14]): 3.68% | Activity (Caco-2 [15]): 2.71%

O=C(CN1C(=O)CN(/N=C/c2ccc([N+](=O)[O-])o2)C1=O)c1ccc(Cl)cc1
Activity (HepG2 [16]): 38.74% | Activity (Caco-2 [17]): Active | Activity (MCF7 [18]): Active | viability at 0.098 µM (HepG2 [19]): 55% | Activity (HepG2 [20]): 6.31% | Activity (MCF7 [21]): 34.7%

NS(=O)(=O)c1ccc(-n2cc(CN3C(=O)CN(/N=C/c4ccc([N+](=O)[O-])o4)C3=O)nn2)cc1
Activity (Caco-2 [22]): 58% | Activity (Caco-2 [23]): 30.95% | Activity (HeLa [24]): 39.42% | viability at 0.097 µM (MCF7 [25]): 31.1%
